Data as given in patent publication US20220040280A1, “INHIBITORS AND USES THEREOF” (UNIVERSITY OF CANBERRA, priority 2016, published 2022).
“Also recorded” adds a separate entry of the source. Residues, ends and D or L forms follow the SMILES beside them. *: point of attachment. Myristoyl = CCCCCCCCCCCCCC(=O)*

B1: IFNγ: interferon gamma used as stimulus (10 μg/mL) (protein, UniProt P01579 24-161, looked up)
Interferon gamma: QDPYVKEAENLKKYFNAGHSDVADNGTLFLGILKNWKEESDRKIMQSQIVSFYFKLFKNFKDDQSIQKSVETIKEDMNVKFFNSNKKKRDDFEKLTNYSVTDLNVQRKAIHELIQVMAELSPAAKTGKRKRSQMLFRG

Key:
[1] = system: MDA-MB-231 breast cancer cells; experiment: Flow cytometry of stimulated MDA-MB-231 cells (PD-L1, CD44, CD24); assay type: cell-based, human; details: for Median Fluorescence Intensity (MFI) of PD-L1, change on stimulation: MDA-MB-231 cells
Procedure: MCF7 and MDA-MB-231 cells were obtained from the American Type Culture Collection (Manassas, Va.). Cells were cultured in DMEM (Invitrogen, Life Technologies, Carlsbad, Calif.) supplemented with 10% FBS, 2 mM L-glutamine, and 1% penicillin-streptomycin-neomycin. MCF7 cells were stimulated with 1.32 ng/ml phorbol 12-myristate 13-acetate (PMA) (Sigma-Aldrich, St Louis, Mo.) or 5 ng/ml recombinant TGF-β1 (R&D Systems, Minneapolis, Minn.) for 60 h. For the co-culture assay MDA-MB-231 cells were stimulated with Jurkat T-cells at defined ratios.
(§1) Isolated PBMCs and CTCs were stained with CD45−APC, pan-cytokeratin (CK)-FITC, EpCAM-Percp-Cy5.5 and PD-L1-BV421 antibodies. Co-cultured MDA-MB-231 cells were stained with CD44, CD24 and PD-L1. Flow cytometric analysis was performed on single cell suspensions for using the BD LSR II Flow Cytometer.

[2] = system: MDA-MB-231 breast cancer cells; experiment: as above; assay type: cell-based, human; details: IFNγ 10 μg/mL, PMA 24 ng/mL, 24 or 48 hours
[3] = biological target: T1, LSD1 phosphorylated at serine 111 (LSD1s111p) (Homo sapiens, UniProt O60341); experiment: Confocal microscopy of LSD1s111p in MCF7 cells treated with peptide inhibitors; assay type: cell-based; details: stimulated and non-stimulated MCF7 cells, relative to control, FIG. 4
T1 construct: endogenous in cells; host or cells: MCF7 (non-stimulated or PMA-stimulated) and MDA-MB-231 breast cancer cells
Procedure: (§2) Cells were probed with either rabbit antibodies to LSD1s111p (Merck ABE1462), EGFR (AB2430), MET (ab51067), PD-L1 (sc-50298), goat antibodies to PD-L1 (sc-19091), SC-14033), (sc-19096), mouse antibodies to Cytokeratin (Miltenyi 130-090-866), CSV (Abnova H00007431-M08), vimentin (SC-6260) followed by visualisation with secondary anti mouse Alexa-Fluor 568 (A10037), secondary anti rabbit Alexa-Fluor 488 (A21206) or secondary anti goat Alexa-Fluor 633 (A21082).
(§3) MDA-MB-231 or MCF7 cells were treated with one of L1, L2 or L3 and a control. Cells were then fixed with 3.7% formaldehyde and permeabilized with 2% Triton-X-100, then probed with a primary mouse antibody against LSD1 or a primary rabbit antibody against PD-L1, EGFR or MET, followed by visualization with a secondary goat antibody to mouse or rabbit immunoglobulins conjugated to Alexa-Fluor 488. Confocal laser scanning microscopy was used to measure the Fn/c (ratio of nuclear to cytoplasmic fluorescent intensity) ratio of LSD1 with Fiji-imageJ or the total nuclear fluorescence of PD-L1, EGFR or MET. Values are plotted with significant differences indicated using the Mann-Whitney T-test, with at least 20 cells counted per sample. Representative images for each treatment are shown.

PD-L1 [4] = experiment: Confocal microscopy of PD-L1 in MCF7 cells treated with peptide inhibitors; assay type: cell-based, human; details: for abrogation of nuclear PD-L1 expression: epithelial non-stimulated MCF7 cells, compared with stimulated cells; for Fn/c ratio (nuclear bias) of PD-L1: peptide treated MCF7 cells; for cytoplasmic/surface expression of PD-L1 (TCFI): stimulated MCF7 cells; for cytoplasmic/surface expression of PD-L1 (TCFI) / expression of nuclear PD-L1 (TNFI): FIG. 5; for expression of nuclear PD-L1 (TNFI): stimulated, mesenchymal MCF7 cells
Procedure: as §2, §3

EGFR = experiment: Confocal microscopy of EGFR in MDA-MB-231 cells treated with peptide inhibitors; assay type: cell-based, human; details: in comparison to control, FIG. 23
Procedure: as §3

MDA-MB-231 cells = details: 100 μM, FIG. 21
Procedure: (§4) 5×10^4 MCF7 or MDA-MB-231 cells were seeded with 1 mL of complete DMEM in 12 well plates overnight. […] Samples were harvested by trypsinisation followed by washing with DPBS containing 2% HI-FBS. FACS staining were performed using anti-human CD44-APC, anti-human CD24-PE, Hoechst, and anti-human EpCAM antibody cocktails. Data was collected from a BD FACSLSR-II flow cytometer. Treestar FlowJo was used for data analysis.

LSD1 = biological target: T2, LSD1 (Homo sapiens, UniProt O60341); experiment: LSD1 nuclear translocation in MDA-MB-231 cells, confocal microscopy; assay type: cell-based; details: FIG. 19 and FIG. 31
T2 construct: endogenous in cells; host or cells: MCF7 (non-stimulated or PMA-stimulated) and MDA-MB-231 breast cancer cells
Procedure: as §3
Confocal laser scanning microscopy was performed on MDA-MB-231 cells treated with a LSD1 peptide inhibitor, L1, L2 or L3, or vehicle alone. Cells were fixed with 3.7% formaldehyde and permeabilized with 2% Triton-X-100, and then probed with a primary mouse antibody to LSD1, followed by the corresponding secondary antibody conjugated to Alexa-Fluor 488. Confocal laser scanning microscopy was used to determine the Fn/c ratio of LSD1 with image-J. Values are plotted with significant differences indicated. Data shown represent the mean±SE for at least 20 individual cells.

PD-L1 [5] = experiment: Confocal microscopy of PD-L1 in MDA-MB-231 cells treated with peptide inhibitors; assay type: cell-based, human; details: for cytoplasmic/surface expression of PD-L1 (TCFI) / expression of nuclear PD-L1 (TNFI) / PD-L1 nuclear expression: MDA-MB-231 cells; for cytoplasmic/surface expression of PD-L1 (TCFI) / expression of nuclear PD-L1 (TNFI): FIG. 6; for PD-L1 nuclear expression: in comparison to the control, FIG. 22 (50 μM and 100 μM); for Fn/c ratio (nuclear bias) of PD-L1: peptide treated MDA-MB-231 cells
Procedure: as §2, §3

MET = experiment: Confocal microscopy of MET in MDA-MB-231 cells treated with peptide inhibitors; assay type: cell-based, human; details: in comparison to control, FIG. 24
Procedure: as §3

MCF7 cells = details: PMA stimulated MCF7 cells, 50 μM and 100 μM tested, FIG. 20
Procedure: as §4

[6] = biological target: T1, LSD1 phosphorylated at serine 111 (LSD1s111p); experiment: Confocal microscopy of LSD1s111p in MDA-MB-231 cells treated with peptide inhibitors; assay type: cell-based; details: relative to control, FIG. 4
Procedure: as §2, §3

PD-L1 [7] = experiment: FACS of PD-L1 in CD45-CK+ circulating tumor cells from patient liquid biopsies; assay type: cell-based, human; details: CD45-CK+ CTCs
Procedure: as §1

[8] = stimulated MDA-MB-231, 24 hours
[9] = stimulated MDA-MB-231, 48 hours

nuclear expression of LSD1s111p (TNFI) [3]	nuclear expression of LSD1s111p (TNFI) [6]	Molecule	Median Fluorescence Intensity (MFI) of PD-L1, change on stimulation [1]	CD44^hi CD24^lo (Frequency of parent, %) [1, 8] [%]	CD44^hi CD24^lo, PD-L1+ (Frequency of parent, %) [1, 8] [%]	Mean Fluorescence Intensity of Comp Pacific Blue-A PD-L1, CD44^hi CD24^lo, PD-L1+ subset [1, 8]	Mean Fluorescence Intensity of Comp Pacific Blue-A PD-L1, PD-L1+ subset [1, 8]	PD-L1+ (Frequency of parent, %) [1, 8] [%]	abrogation of nuclear PD-L1 expression (PD-L1 [4])	Fn/c ratio (nuclear bias) of PD-L1 (PD-L1 [4])	cytoplasmic/surface expression of PD-L1 (TCFI) (PD-L1 [4])	expression of nuclear PD-L1 (TNFI) (PD-L1 [4])	EGFR nuclear expression (TNFI) (EGFR)	cancer stem cell formation (MDA-MB-231 cells)	nuclear translocation of LSD1 (Fn/c) (LSD1)	cytoplasmic/surface expression of PD-L1 (TCFI) (PD-L1 [5])	expression of nuclear PD-L1 (TNFI) (PD-L1 [5])	PD-L1 nuclear expression (PD-L1 [5])	Fn/c ratio (nuclear bias) of PD-L1 (PD-L1 [5])	MET nuclear expression (TNFI) (MET)	other results
–	–	CCCCCCCCCCCCCC(=O)O[C@@H]1[C@@H](C)[C@@]2(O)[C@@H](C=C(CO)C[C@]3(O)C(=O)C(C)=C[C@@H]23)[C@@H]2C(C)(C)[C@]12OC(C)=O [PMA, phorbol 12-myristate 13-acetate, reference compound]	decreased	98.4	98.6	3145	3126	98.5	–	–	–	–	–	–	–	–	–	–	–	–	CD44^hi CD24^lo (Frequency of parent, %) [1, 9]: 98.3%; CD44^hi CD24^lo, PD-L1+ (Frequency of parent, %) [1, 9]: 99.2%; Mean Fluorescence Intensity of Comp Pacific Blue-A PD-L1, CD44^hi CD24^lo, PD-L1+ subset [1, 9]: 4016; Mean Fluorescence Intensity of Comp Pacific Blue-A PD-L1, PD-L1+ subset [1, 9]: 3983; PD-L1+ (Frequency of parent, %) [1, 9]: 99.1%; frequency (%) of PD-L1+ cells, change on stimulation [2]: not altered
significantly abrogated	significantly abrogated	CCCCCCCCCCCCCC(=O)N[C@@H](CCCNC(=N)N)C(=O)N[C@@H](CCCNC(=N)N)C(=O)N[C@H](C(=O)N[C@@H](CO)C(=O)N[C@@H](CCCNC(=N)N)C(=O)N[C@@H](CCCNC(=N)N)C(=O)N[C@@H](CCCCN)C(=O)N[C@@H](CCCNC(=N)N)C(=O)N[C@@H](C)C(=O)N[C@@H](CCCCN)C(=O)N[C@H](C(=O)O)C(C)C)[C@@H](C)O [Peptide L1, Myristoyl-RRTSRRKRAKV-OH] (Myristoyl-RRTSRRKRAKV-OH)	–	–	–	–	–	–	lessened	strongly nuclear	significantly inhibited	significantly abrogated	significant abrogation	significant reduction	inhibited; also recorded: clearly abrogated	significantly inhibited	significantly abrogated	abrogated	strongly nuclear	significant abrogation	cancer stem cell formation (MCF7 cells): inhibited
significantly abrogated	significantly abrogated	CCCCCCCCCCCCCC(=O)N[C@@H](CCCNC(=N)N)C(=O)N[C@@H](Cc1c[nH]c2ccccc12)C(=O)N[C@@H](CCCNC(=N)N)C(=O)N[C@@H](CCCNC(=N)N)C(=O)N[C@H](C(=O)N[C@@H](C)C(=O)N[C@@H](CCCNC(=N)N)C(=O)N[C@@H](CCCNC(=N)N)C(=O)N[C@@H](CCCCN)C(=O)N[C@@H](CCCNC(=N)N)C(=O)N[C@@H](C)C(=O)N[C@@H](CCCCN)C(=O)N[C@H](C(=O)O)C(C)C)[C@@H](C)O [Peptide L3, Myristoyl-RWRRTARRKRAKV-OH] (Myristoyl-RWRRTARRKRAKV-OH)	–	–	–	–	–	–	lessened	strongly nuclear	significantly inhibited	significantly abrogated	reduction	significant reduction	inhibited; also recorded: clearly abrogated	significantly inhibited	significantly abrogated	abrogated	strongly nuclear	significant abrogation	–
–	–	CN(C)C(=O)c1cc2cnc(Nc3ccc(N4CCNCC4)cn3)nc2n1C1CCCC1 [Ribociclib]	–	–	–	–	–	–	–	–	–	–	–	–	–	–	–	–	–	–	PD-L1 nuclear (nPD-L1) expression (PD-L1 [7]; Patient A, FIG. 18A): greatest inhibition; PD-L1 nuclear expression (PD-L1 [7]; Patient B, FIG. 18B): inhibited; PD-L1 surface/cytoplasmic expression (PD-L1 [7]; Patient B, FIG. 18B): inhibited
significantly abrogated	significantly abrogated	CCCCCCCCCCCCCC(=O)N[C@@H](CCCNC(=N)N)C(=O)N[C@@H](CCCNC(=N)N)C(=O)N[C@H](C(=O)N[C@@H](C)C(=O)N[C@@H](CCCNC(=N)N)C(=O)N[C@@H](CCCNC(=N)N)C(=O)N[C@@H](CCCCN)C(=O)N[C@@H](CCCNC(=N)N)C(=O)N[C@@H](C)C(=O)N[C@@H](CCCCN)C(=O)N[C@H](C(=O)O)C(C)C)[C@@H](C)O [Peptide L2, Myristoyl-RRTARRKRAKV-OH] (Myristoyl-RRTARRKRAKV-OH)	–	–	–	–	–	–	lessened	strongly nuclear	significantly inhibited	significantly abrogated	reduction	significant reduction	inhibited; also recorded: clearly abrogated	significantly inhibited	significantly abrogated	abrogated	strongly nuclear	significant abrogation	cancer stem cell formation (MCF7 cells): inhibited
–	–	B1	increases	77.7	99.7	6173	6015	99.7	–	–	–	–	–	–	–	–	–	–	–	–	CD44^hi CD24^lo (Frequency of parent, %) [1, 9]: 98.9%; CD44^hi CD24^lo, PD-L1+ (Frequency of parent, %) [1, 9]: 99.7%; Mean Fluorescence Intensity of Comp Pacific Blue-A PD-L1, CD44^hi CD24^lo, PD-L1+ subset [1, 9]: 6173; Mean Fluorescence Intensity of Comp Pacific Blue-A PD-L1, PD-L1+ subset [1, 9]: 6133; PD-L1+ (Frequency of parent, %) [1, 9]: 99.7%; frequency (%) of PD-L1+ cells, change on stimulation [2]: not altered
